Experimental data taken from patent publication US9243281B2, “Neuroprotective chemicals and methods for identifying and using same” (Board of Regents of The University of Texas System, priority 2013, dated 2016).

test system: hippocampal neurogenesis (Dentate Gyrus); test: in vivo neurogenesis assay (BrdU+ cells in dentate gyrus); design: species or system mice; settings: living mice; vehicle (DMSO) 7.3
Excerpt: The screen was simple in concept. With help from chemists in the Department of Biochemistry at UTSWMC, we selected 1,000 druglike chemicals from the 250,000 compounds in our high throughput screening center. The compounds were selected to preserve representative chemical diversity of the entire library. They were further selected to enhance the representation of chiral molecules, and to avoid untoward chemical properties such as reactive moieties. The 1,000 molecules were randomly pooled into groups of ten, and each pool was administered directly into the left ventricle of two adult mice. Intracranial delivery was facilitated by stereotactic positioning of a canula fed directly by an Alzet mini-pump containing the mixture of ten chemicals. The drug mixture was administered over a week-long period at concentrations anticipated to deliver mid-nanomolar levels of the ten test compounds. Daily injections of the thymidine analog, bromodeoxyuridine (BrdU), were coadministered in order to monitor the formation of new hippocampal nerve cells. Following compound administration, animals were sacrificed such that brain tissue could be recovered, sectioned and stained with antibodies to BrdU. […]

**Q.** With [N-]=[N+]=Nc1cccc(NCC(O)Cn2c3ccc(Br)cc3c3cc(Br)ccc32)c1 (centres unmarked) [S36] as the compound, how does the “Neurogenesis # BrdU+ Cells (X10E06)/mm3 Dentate Gyrus” value (“Neurogenesis # BrdU+ Cells” for short) read?
**A.** 8.9 (X10E06)/mm3

**Q.** How did the “Neurogenesis # BrdU+ Cells” value turn out when OC(CNc1ccccn1)Cn1c2ccc(Br)cc2c2cc(Br)ccc21 (centres unmarked) [S38] was run?
**A.** 13.7 (X10E06)/mm3

**Q.** Which “Neurogenesis # BrdU+ Cells” value does the source give for OC(COc1ccccc1)Cn1c2ccc(Br)cc2c2cc(Br)ccc21 (centres unmarked) [S39] here?
**A.** 14.8 (X10E06)/mm3

**Q.** With O[C@@H](COc1ccccc1)Cn1c2ccc(Br)cc2c2cc(Br)ccc21 [S40] as the compound, how does the “Neurogenesis # BrdU+ Cells” value read?
**A.** 8.1 (X10E06)/mm3

**Q.** With O[C@H](COc1ccccc1)Cn1c2ccc(Br)cc2c2cc(Br)ccc21 [S41] as the compound, how does the “Neurogenesis # BrdU+ Cells” value read?
**A.** 15.3 (X10E06)/mm3

**Q.** FC(COc1ccccc1)Cn1c2ccc(Br)cc2c2cc(Br)ccc21 (centres unmarked) [S42] was tested. Which “Neurogenesis # BrdU+ Cells” value did it give?
**A.** 11.7 (X10E06)/mm3

**Q.** For CC(=O)NCCOCC(O)Cn1c2ccc(Br)cc2c2cc(Br)ccc21 (centres unmarked) [S43], which “Neurogenesis # BrdU+ Cells” value is on record?
**A.** 11.7 (X10E06)/mm3

**Q.** Which “Neurogenesis # BrdU+ Cells” value does the source give for OC(CNc1ccncc1)Cn1c2ccc(Br)cc2c2cc(Br)ccc21 (centres unmarked) [S45] here?
**A.** 8.0 (X10E06)/mm3

**Q.** With Cc1ccc2c(c1)c1c(n2CC(O)CNc2ccccc2)CCN(C)C1 (centres unmarked) [S46] as the compound, how does the “Neurogenesis # BrdU+ Cells” value read?
**A.** 9.2 (X10E06)/mm3

**Q.** How did the “Neurogenesis # BrdU+ Cells” value turn out when COc1cccc(NCC(O)Cn2c3ccc(Br)cc3c3cc(N=[N+]=[N-])ccc32)c1 (centres unmarked) [S47] was run?
**A.** 10.1 (X10E06)/mm3

**Q.** With COc1ccc(OCC(O)Cn2c3ccc(Br)cc3c3cc(Br)ccc32)cc1 (centres unmarked) [S49] as the compound, how does the “Neurogenesis # BrdU+ Cells” value read?
**A.** 12.0 (X10E06)/mm3

**Q.** Which “Neurogenesis # BrdU+ Cells” value does the source give for FC(CNc1ccccc1)Cn1c2ccc(Br)cc2c2cc(Br)ccc21 (centres unmarked) [S55] here?
**A.** 13.8 (X10E06)/mm3

**Q.** COc1ccc(OCC2(Cn3c4ccc(Br)cc4c4cc(Br)ccc43)NN2)cc1 [S57] was tested. Which “Neurogenesis # BrdU+ Cells” value did it give?
**A.** 11.9 (X10E06)/mm3

**Q.** For C#Cc1ccc2c(c1)c1cc(C#C)ccc1n2CC(O)CNc1cccc(OC)c1 (centres unmarked) [S64], which “Neurogenesis # BrdU+ Cells” value is on record?
**A.** 8.6 (X10E06)/mm3

**Q.** With CN(C)CCCN1c2ccccc2CCc2ccccc21.Cl [S88, Imipramine, reference compound] as the compound, how does the “Neurogenesis # BrdU+ Cells” value read?
**A.** 7.8 (X10E06)/mm3

**Q.** How did the “Neurogenesis # BrdU+ Cells” value turn out when O=C(COc1cccc(S(=O)(=O)CC(O)Cn2c3ccc(Br)cc3c3cc(Br)ccc32)c1)NCc1ccccc1 (centres unmarked) [S102] was run?
**A.** 8.9 (X10E06)/mm3

molecular target: T1, p70 (NAMPT) (Homo sapiens, UniProt P43490); test: binding competition for photo-crosslinking of P7C3-S326 to p70 in H2122 cells; settings: 0.3 μM P7C3-S326 plus 5 μM competitor, p70 band intensity, P7C3-S326 alone compared with plus competitor, vehicle 1.0
T1 construct: endogenous in cells; host or cells: H2122 lung cancer cells
Protocol: Cultured cells were co-exposed to P7C3-S326 (0.3 uM) and the individual P7C3 variants (5 uM), exposed to UV light, lysed, clicked to a fluorescent dye and run on SDS gels (FIG. 11).
P7C3-S326 was diluted to 0.3 μM in culture medium to treat H2122 cells. After incubation at 37° C. for 2 hours, H2122 cells were irradiated for 15 minutes under 306 nm ultraviolet light in a Stratalinker 2400 (Stratagene). Cells were then harvested by dissolving in 1% SDS lysis buffer 50 mM HEPES, pH 8.0, 2 mM MgCl2, 10 mM KCl, 1% SDS, 50 units/ml of Benzonase (Sigma), supplemented with Sigmafast protease inhibitor (Sigma).
The reaction was incubated at room temperature with constant agitation at 1,000 rpm on a thermomixer (Eppendorf) for 1 hour. Samples were then mixed with SDS sample loading buffer and loaded on an 8% SDS-PAGE gel, separated, and imaged using a Typhoon imager (filter settings: excitation 533 nm, emission 555 nm, and high sensitivity).
H2122 cells were incubated with the P7C3-S326 (0.3 μM) in the absence or presence of P7C3 analogs for 2 hours following by UV crosslinking. […] The samples were run on SDS-PAGE gels scanned using a Typhoon Imager. The p70 band intensity was analyzed and quantified by Image J, and the relative intensity in each assay was normalized to that of the DMSO control.

T1 sequence (P43490 whole entry): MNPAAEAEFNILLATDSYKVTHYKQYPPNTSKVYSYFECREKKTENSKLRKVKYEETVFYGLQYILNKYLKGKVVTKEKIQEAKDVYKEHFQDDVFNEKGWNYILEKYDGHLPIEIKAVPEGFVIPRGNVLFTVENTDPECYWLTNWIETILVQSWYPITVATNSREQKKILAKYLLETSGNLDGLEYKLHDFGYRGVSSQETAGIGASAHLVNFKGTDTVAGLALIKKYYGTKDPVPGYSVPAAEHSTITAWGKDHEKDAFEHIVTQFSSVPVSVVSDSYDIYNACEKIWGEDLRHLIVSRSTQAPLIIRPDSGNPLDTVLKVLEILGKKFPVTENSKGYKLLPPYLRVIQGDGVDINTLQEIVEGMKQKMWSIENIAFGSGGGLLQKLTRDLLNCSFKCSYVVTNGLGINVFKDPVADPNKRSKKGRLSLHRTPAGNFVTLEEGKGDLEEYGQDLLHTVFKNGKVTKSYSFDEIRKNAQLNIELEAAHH

**Q.** Which Binding competition does the source give for [N-]=[N+]=Nc1cccc(NCC(O)Cn2c3ccc(Br)cc3c3cc(Br)ccc32)c1 (centres unmarked) [S36] here?
**A.** 3.1

**Q.** Which Binding competition does the source give for OC(CNc1ccccn1)Cn1c2ccc(Br)cc2c2cc(Br)ccc21 (centres unmarked) [S38] here?
**A.** 4.2

**Q.** For OC(COc1ccccc1)Cn1c2ccc(Br)cc2c2cc(Br)ccc21 (centres unmarked) [S39], which Binding competition is on record?
**A.** 2.6

**Q.** For O[C@@H](COc1ccccc1)Cn1c2ccc(Br)cc2c2cc(Br)ccc21 [S40], which Binding competition is on record?
**A.** 2.8

**Q.** O[C@H](COc1ccccc1)Cn1c2ccc(Br)cc2c2cc(Br)ccc21 [S41] was tested. Which Binding competition did it give?
**A.** 3.4

**Q.** How did the Binding competition turn out when FC(COc1ccccc1)Cn1c2ccc(Br)cc2c2cc(Br)ccc21 (centres unmarked) [S42] was run?
**A.** 1.7

**Q.** CC(=O)NCCOCC(O)Cn1c2ccc(Br)cc2c2cc(Br)ccc21 (centres unmarked) [S43] was tested. Which Binding competition did it give?
**A.** 1.7

**Q.** Which Binding competition does the source give for OC(CNc1ccncc1)Cn1c2ccc(Br)cc2c2cc(Br)ccc21 (centres unmarked) [S45] here?
**A.** 1.2

**Q.** With Cc1ccc2c(c1)c1c(n2CC(O)CNc2ccccc2)CCN(C)C1 (centres unmarked) [S46] as the compound, how does the Binding competition read?
**A.** 1.9

**Q.** Which Binding competition does the source give for COc1cccc(NCC(O)Cn2c3ccc(Br)cc3c3cc(N=[N+]=[N-])ccc32)c1 (centres unmarked) [S47] here?
**A.** 5.5

**Q.** How did the Binding competition turn out when OC(CNc1ccccc1)Cn1c2ccc(C(F)(F)F)cc2c2cc(C(F)(F)F)ccc21 (centres unmarked) [S75] was run?
**A.** 2.5

**Q.** How did the Binding competition turn out when O=C(Cn1c2ccc(Br)cc2c2cc(Br)ccc21)Nc1ccccc1 [S112] was run?
**A.** 1.2

**Q.** For Brc1ccc2c(c1)c1cc(Br)ccc1n2CCNc1ccccc1 [S115], which Binding competition is on record?
**A.** 3.7

**Q.** Which Binding competition does the source give for Fc1ccc([C@@H]2CCNC[C@H]2COc2ccc3c(c2)OCO3)cc1 [S120, Paxil, reference compound] here?
**A.** 1.3

**Q.** Which Binding competition does the source give for CC(NC(C)(C)C)C(=O)c1cccc(Cl)c1 (centres unmarked) [S125, Wellbutrin, reference compound] here?
**A.** 1.1

**Q.** CC(C)(C)OC(=O)CCOCCOCCOCCOc1ccc(S(=O)(=O)CC(O)Cn2c3ccc(Br)cc3c3cc(Br)ccc32)cc1 (centres unmarked) [S130] was tested. Which Binding competition did it give?
**A.** 2.9

**Q.** With Brc1ccc2[nH]c3ccc(Br)cc3c2c1 [S162] as the compound, how does the Binding competition read?
**A.** 2.3

**Q.** For Cn1c2ccc(Br)cc2c2cc(Br)ccc21 [S163], which Binding competition is on record?
**A.** 2.5

**Q.** With O=C(O)Cn1c2ccc(Br)cc2c2cc(Br)ccc21 [S165] as the compound, how does the Binding competition read?
**A.** 1.3

**Q.** OC(CNC1CCCC1)Cn1c2ccc(Br)cc2c2cc(Br)ccc21 (centres unmarked) [S176] was tested. Which Binding competition did it give?
**A.** 4.1

**Q.** With OC(CNc1cccc2ccccc12)Cn1c2ccccc2c2ccccc21 (centres unmarked) [S180] as the compound, how does the Binding competition read?
**A.** 3.2

**Q.** How did the Binding competition turn out when CN(C)C[C@H](O)CN1c2ccccc2CCc2ccccc21 [S181] was run?
**A.** 0.9
